From patent US7335673B2, “2,3-Diphenylpropionic acid derivatives or their salts, medicines or cell adhesion inhibitors containing the same, and their usage” (Kaken Pharmaceutical Co., Ltd., priority 2001, dated 2008)

Key:
[1] = VLA-4/VCAM-1 cell adhesion inhibition test; assay type: cell-based; conditions: Homo sapiens; adhesion of BCECF-labeled HL-60 cells to VCAM-1-expressing CHO cells; read-out: 50% Inhibition Concentration
Procedure: VCAM-1-expressing CHO cells were placed in a 96-well cuture plate in an amount of 7×10^3 cells/well, and were cultured in Ham's F-12 medium containing 10 vol % fetal calf serum (FCS) for 3 days until a confluent state was satisfied. HL-60 cells were re-flotated in Hanks' solution containing 0.4 wt % bovine serum albumin (BSA), and fluorescence-labeled by adding 5 μM of 2′,7′-bis(carboxyethyl)-5(6)-carboxy fluorescein pentaacetoxymethyl ester (BCECF-AM). […]
Thus-pretreated HL-60 cells were then stratified in an amount of 2×10^5 cells/well in each well containing the cultured VCAM-1-expressing CHO cells, and allowed to adhere at 37° C. for 5 minutes. […] The cells were washed, destroyed by adding PBS containing 1 vol % NP-40, and fluorescence intensity of the obtained supernatant was measured using a fluorescence measurement system (Millipore, Model cyto Fluor 2300).
Blank experiment was based on fluorescence intensity of PBS containing 1 vol % NP-40. Standard experiment was carried out using the fluorescence-labeled HL-60 suspensions having a concentration of 2×10^5, 10^5, 2×10^4 and 10^4 cells/mL, respectively, where the suspensions were added to PBS containing 1 vol % NP-40, the cells were destroyed, and the fluorescence intensities of the obtained supernatant were measured. […]

[2] = test system: LPAM-1/VCAM-1 adhesion; assay: LPAM-1/VCAM-1 adhesion inhibition test

IC50 [1] [µM] | Structure (SMILES) | inhibition activity in LPAM-1/VCAM-1 adhesion inhibition test [2]
6 | CC(C)CNc1cccc(C(Cc2ccc(NC(=O)c3c(Cl)cccc3Cl)cc2)C(=O)O)c1 (stereo not drawn) [Example 27] | 
4.1 | COc1ccc(C(Cc2ccc(-c3c(OC)cccc3OC)cc2)C(=O)O)cc1N(CC(C)C)C(=O)C(C)(C)C (stereo not drawn) [Example 106] | showed the inhibition activity
